Measured values: patent publication US20230219898A1, “COMPOUNDS AND METHODS FOR BLOCKING APOPTOSIS AND INDUCING AUTOPHAGY” (President and Fellows of Harvard College, priority 2020, published 2023)
Where two headings read alike, the source gives them in different places.

Tests used:
[1] = target: T1, GST-TRADD (Homo sapiens, UniProt Q15628); assay: Thermal shift assay with GST-TRADD; format: binding; settings: GST-TRADD 50 μM, compound 250 μM
T1 construct: cDNA encoding GST-tagged hTRADD (Full length or aa180-312); made in house; host or cells: HEK293T (pEBG plasmid)
T1 sequence (Q15628 whole entry, the tested form may be a part): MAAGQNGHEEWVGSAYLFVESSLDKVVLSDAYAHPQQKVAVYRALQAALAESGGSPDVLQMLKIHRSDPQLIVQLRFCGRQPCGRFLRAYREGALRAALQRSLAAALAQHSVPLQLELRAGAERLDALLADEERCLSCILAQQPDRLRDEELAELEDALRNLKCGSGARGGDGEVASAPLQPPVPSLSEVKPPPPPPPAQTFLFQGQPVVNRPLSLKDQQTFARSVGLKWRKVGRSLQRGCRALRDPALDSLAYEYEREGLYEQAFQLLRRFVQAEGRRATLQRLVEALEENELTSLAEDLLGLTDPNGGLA
Excerpt: Thermal unfolding of GST-TRADD is monitored using SYPRO Orange. Data were collected in the presence of ICCB-19 and Apt-1, leading to a rightward shift in the unfolding transition. The apparent melting temperature (Tm) is the peak in the derivative of the unfolding curve (dF/dT), which is used as an indicator of thermal stability.
Full-length cDNAs for mouse/human TRADD were PCR-amplified from the plasmid library and cloned into pcDNA3.1 using Phanta Max Super-Fidelity DNA Polymerase (Vazyme Biotech Co., Ltd) with appropriate tags. Mutant hTRADD were generated using MutExpress II mutagenesis kit (Vazyme Biotech Co., Ltd). […]
To determine stability, purified proteins were made to a final concentration of 1 μg/l. […] The reaction was run from 25C, ramping up in increments of 0.05° C./s to a final temperature of 95C with fluorescence detection throughout the experiment to generate a dataset. Melting temperature of the protein (Tm) was determined by performing non-linear fitting of the dataset to a Boltzmann Sigmoidal curve in GraphPad Prism with the following equation: Y=Bottom+(Top-Bottom)/[1+exp(Tm-X/Slope)], where Y=fluorescence emission in arbitrary units; X=temperature; Bottom=baseline fluorescence at low temperature; Top=maximal fluorescence at top of the dataset; Slope=describes the steepness of the curve, with larger values denoting shallower curves.

[2] = tested on: Murine RGC5(661W) cells; assay: RIPK1-dependent apoptosis (RDA) of RGC5 cells induced by TNFα plus 5Z-7-Oxozeaenol; format: cell-based; settings: Mus musculus, 21 hours
Experimental: Murine RGC5(661W) cells were seeded in 96-well plates (4000 cells per well). Different concentrations of the compounds were added one hour prior to TNFα treatment, followed by the addition of 0.5 ng/ml TNFα plus 0.5 μM 5Z-7-Oxozeaenol to induce RIPK1-dependent apoptosis (RDA). After incubation for 21 hours, cell viability was measured by CellTiter-Glo Luminescent Cell Viability Assay.

[3] = tested on: Htt-103Q, α-synuclein and tau expressing cells; assay: Misfolded protein accumulation and cell death in cell models (Htt-103Q, α-synuclein, tau); format: cell-based; settings: 10 μM
Experimental: Nuclei were labeled with DAPI. The amount of Htt-Q103-EGFP aggregates per mm^2 was quantified using ImageJ. Scale bar is 100 μm. Cell viability was measured by CellTiter-Glo assay. Survival rate is compared with vehicle-treated cells. Mean ±s.d. from technical triplicates (n=3), representative of 3 independent experiments. One-way ANOVA, post hoc Dunnett's tests. ***P<0.001; n.s. not significant, (P=0.8556, 0.9195, 0.8613, 0.5687, 0.5304, 0.9998, 0.6029, 0.2821 (left to right)).
RFP-α-Synuclein was quantified by Fluorescence/Cell (RLU) by ImageJ.
Mean ±s.d. from technical triplicates (n=3), representative of 3 independent experiments. Two-way ANOVA, post hoc Bonferroni's tests. ***P<0.001; *P=0.0262, 0.0367 (left to right).
Mean ±s.d. from technical triplicates (n=3), representative of 3 independent experiments. Two-way ANOVA, post hoc Bonferroni's tests.

[4] = target: T2, TRADD-N (Homo sapiens, UniProt Q15628); assay: BIAcore SPR binding to TRADD-N; settings: 25C, steady-state affinity
T2 construct: expression constructs encoding Flag-TRADD-N(1-179) and HA-TRADD-C(180-312); His (N); made in house
T2 sequence (Q15628 1-179): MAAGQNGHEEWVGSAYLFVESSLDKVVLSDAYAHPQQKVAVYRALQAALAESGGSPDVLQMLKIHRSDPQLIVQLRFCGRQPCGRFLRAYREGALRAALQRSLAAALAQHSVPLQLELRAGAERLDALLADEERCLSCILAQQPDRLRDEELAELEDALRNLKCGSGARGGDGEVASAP
Experimental: A series of concentrations of ICCB-19 (ranging from 0.3125 to 10 μM) was used to measure the binding kinetics, with TRADD-N immobilized on the CM5 chip.
The binding affinity between ICCB-19/Apt-1 and TRADD-N was analyzed at 25C on a BIAcore T200 machine with CM5 chips (GE Healthcare). PBS-P buffer (GE Healthcare) was used for all measurements. For surface plasmon resonance (SPR) measurements, Flag-tagged TRADD-N protein was purified from HEK293T cells by anti-Flag affinity gel and eluted by 3×Flag peptide. The protein was further purified by size exclusion chromatograph on a Superdex 75 column (GE Healthcare) in a buffer containing 20 mM imidazole (pH 6.6), 200 mM NaCl, 20 mM DTT. The protein was dialyzed into PBS and diluted to a final concentration of 40 μg/ml in NaOAc buffer (pH 4.5) before immobilization on CM5 chip. ˜5000 response units of protein were immobilized on the chip with a running buffer composed of PBS-P. Reference was used to normalize the response unit (RU) values of protein. A series of compound concentrations ranging from 0.3125 to 10 μM was tested at […] flow rate. The contact time is 100 s and dissociation time is 120 s. When the data collection was finished in each cycle, the sensor surface was regenerated with PBS-P buffer. DMSO solvent correction was performed following the BIAcore T200 Guide.

[5] = Table 3, 0.5 ng/ml TNFα plus 0.5 μM 5Z-7-Oxozeaenol, read-out: RGC5 T/5z7 IC50/μM

| IC50 ([2]; Table 2, 0.5 ng/ml TNFα plus 0.5 μM 5Z-7-Oxozeaenol, read-out: RGC5 T/5z7 IC50) | SMILES | increase of Tm of GST-TRADD [1] | IC50 [2, 5] | protein accumulation and cell death with Htt-103Q, α-synuclein, tau [3] | Kd [4] |
| --- | --- | --- | --- | --- | --- |
| – | CN1CCN=C1SC(C(=O)NC1CCCCCC1)c1ccccc1 (stereo not drawn) [Compound 30] | 3.7 °C | 1.28 µM | reduced protein accumulation and cell death | 2170 nM |
| 0.18 µM | O=C(CSC1=NCCN1)NC1CCCCCC1 [ICCB-19] | 3.2 °C | 2.01 µM | reduced protein accumulation and cell death | 2300 nM |
